Where two headings read alike, the source gives them in different places.
Molecular target: canine TRPM8 (Canis lupus familiaris, UniProt Q1A7N1)
Test: In Vitro Canine TRPM8 Functional Assay (Ca2+ fluorescence, icilin activation)
Assay type: cell-based
Settings: for inhibition at 0.2 µM: compound at 0.2 μM, read-out: % Inh @ 0.2; for IC50: HEK293 cells stably expressing canine TRPM8, icilin activation, eight-point dose-response, read-out: IC50
Summary of the method: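 Eight-point dose-response curves, each point averaging quadruplicate wells, gave EC50 or IC50. Canine TRPM8-expressing HEK293 cells, dye-loaded (Calcium 3), were pre-exposed 5 min to compound, then challenged with icilin at roughly EC80; intracellular Ca2+ read by FLIPR or FDSS fluorescence.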

[1] = canine TRPM8, icilin activation
[2] = compound at 0.5 μM, canine TRPM8, icilin activation, read-out: % Inh @ 0.5

Chain of canine TRPM8 (Q1A7N1 1-1104): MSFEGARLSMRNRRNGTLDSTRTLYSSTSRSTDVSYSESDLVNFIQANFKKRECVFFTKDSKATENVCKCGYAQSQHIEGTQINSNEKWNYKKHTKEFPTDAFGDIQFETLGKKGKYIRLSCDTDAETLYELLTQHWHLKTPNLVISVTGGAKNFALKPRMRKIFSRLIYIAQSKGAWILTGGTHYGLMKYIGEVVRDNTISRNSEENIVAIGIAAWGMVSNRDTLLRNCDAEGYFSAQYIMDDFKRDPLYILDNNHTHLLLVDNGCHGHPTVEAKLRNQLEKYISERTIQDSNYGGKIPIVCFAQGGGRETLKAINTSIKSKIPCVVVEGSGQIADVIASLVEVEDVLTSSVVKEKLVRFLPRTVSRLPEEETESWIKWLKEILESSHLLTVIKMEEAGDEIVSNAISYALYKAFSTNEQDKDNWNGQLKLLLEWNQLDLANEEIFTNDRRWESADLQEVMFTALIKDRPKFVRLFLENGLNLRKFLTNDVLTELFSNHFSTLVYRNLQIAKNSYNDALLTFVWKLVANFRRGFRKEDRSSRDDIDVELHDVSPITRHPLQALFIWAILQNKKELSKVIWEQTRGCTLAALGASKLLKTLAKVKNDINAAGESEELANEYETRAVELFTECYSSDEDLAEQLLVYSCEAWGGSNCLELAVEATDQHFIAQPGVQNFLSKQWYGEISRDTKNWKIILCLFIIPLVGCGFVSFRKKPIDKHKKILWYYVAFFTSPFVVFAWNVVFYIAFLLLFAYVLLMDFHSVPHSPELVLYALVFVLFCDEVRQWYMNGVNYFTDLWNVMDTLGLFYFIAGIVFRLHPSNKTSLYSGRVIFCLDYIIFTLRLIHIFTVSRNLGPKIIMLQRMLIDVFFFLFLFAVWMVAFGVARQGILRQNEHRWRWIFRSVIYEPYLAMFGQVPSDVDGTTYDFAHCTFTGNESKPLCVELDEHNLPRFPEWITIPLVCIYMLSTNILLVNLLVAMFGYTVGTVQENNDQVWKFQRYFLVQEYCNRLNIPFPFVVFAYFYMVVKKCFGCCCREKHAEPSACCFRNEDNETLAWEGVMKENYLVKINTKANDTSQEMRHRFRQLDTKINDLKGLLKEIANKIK

Row | Structure (SMILES) | inhibition at 0.2 µM [1] | inhibition at 0.5 µM (read-out: % Inh @ 0.5 (μM)) | IC50 | inhibition at 0.5 µM [2]
1 | CCS(=O)(=O)N(Cc1ccc(F)c(C(F)(F)F)c1)c1sc2ccccc2c1-c1ccc(F)cc1 [Compound 201, N-[3-(4-Fluoro-phenyl)-benzo[b]thiophen-2-yl]-N-(4-fluoro-3-trifluoromethyl-benzyl)-ethanesulfonamide] | 14% | – | – | –
2 | CCS(=O)(=O)N(Cc1ccc(F)c(C(F)(F)F)c1)c1sc2ccccc2c1-c1ccsc1 [Compound 202, N-(4-Fluoro-3-trifluoromethyl-benzyl)-N-(3-thiophen-3-yl-benzo[b]thiophen-2-yl)-ethanesulfonamide] | 32% | – | – | –
3 | CCS(=O)(=O)N(Cc1ccc(F)c(F)c1)c1sc2ccccc2c1C(C)=O [Compound 203] | – | 93% | – | –
4 | CC(=O)c1c(N(Cc2ccc(F)c(F)c2)S(=O)(=O)c2ccccc2)sc2ccccc12 [Compound 204, N-(3-Acetyl-benzo[b]thiophen-2-yl)-N-(3,4-difluoro-benzyl)-benzenesulfonamide] | – | – | 6 nM | 96%
5 | CCS(=O)(=O)N(Cc1ccc(F)c(C(F)(F)F)c1)c1sc2ccccc2c1C(C)=O [Compound 205, N-(3-Acetyl-benzo[b]thiophen-2-yl)-N-(4-fluoro-3-trifluoromethyl-benzyl)-ethanesulfonamide] | – | – | 3 nM | 96%
6 | O=Cc1c(N(Cc2ccc(F)c(F)c2)S(=O)(=O)c2ccccc2)sc2ccccc12 [Compound 206, N-(3,4-Difluoro-benzyl)-N-(3-formyl-benzo[b]thiophen-2-yl)-benzenesulfonamide] | 98% | – | 13 nM | –
7 | O=Cc1c(N(Cc2ccc(F)c(C(F)(F)F)c2)S(=O)(=O)c2ccccc2)sc2ccccc12 [Compound 207, N-(4-Fluoro-3-trifluoromethyl-benzyl)-N-(3-formyl-benzo[b]thiophen-2-yl)-benzenesulfonamide] | 98% | – | 16 nM | –
8 | CS(=O)(=O)N(Cc1ccc(F)c(C(F)(F)F)c1)c1sc2ccccc2c1C=O [Compound 208, N-(4-Fluoro-3-trifluoromethyl-benzyl)-N-(3-formyl-benzo[b]thiophen-2-yl)-methanesulfonamide] | 96% | – | 12 nM | –
9 | CS(=O)(=O)N(Cc1ccc(F)c(F)c1)c1sc2ccccc2c1C=O [Compound 209, N-(3,4-Difluoro-benzyl)-N-(3-formyl-benzo[b]thiophen-2-yl)-methanesulfonamide] | 98% | – | 32 nM | –
10 | CCS(=O)(=O)N(Cc1ccc(F)c(C(F)(F)F)c1)c1sc2ccccc2c1C=O [Compound 210, N-(4-Fluoro-3-trifluoromethyl-benzyl)-N-(3-formyl-benzo[b]thiophen-2-yl)-ethanesulfonamide] | 91% | – | 8 nM | –
11 | COC(=O)c1ccc(S(=O)(=O)N(Cc2ccc(F)c(C(F)(F)F)c2)c2sc3ccccc3c2C=O)cc1 [Compound 211, N-(3-Formyl-benzo[b]thiophen-2-yl)-N-(4-fluoro-3-trifluoromethyl-benzyl)-4-carbomethoxy-benzenesulfonamide] | 80% | – | 30 nM | –
12 | CCS(=O)(=O)N(Cc1ccc(F)c(F)c1)c1sc2ccccc2c1C=O [Compound 212, N-(3,4-Difluoro-benzyl)-N-(3-formyl-benzo[b]thiophen-2-yl)-ethanesulfonamide] | 101% | – | 11.4 nM | –
13 | O=S(=O)(c1ccccc1)N(Cc1ccc(F)c(F)c1)c1sc2ccccc2c1CO [Compound 213, N-(3,4-Difluoro-benzyl)-N-(3-hydroxymethyl-benzo[b]thiophen-2-yl)-benzenesulfonamide] | 95% | – | 1.4 nM | –
14 | O=S(=O)(c1ccccc1)N(Cc1ccc(F)c(C(F)(F)F)c1)c1sc2ccccc2c1CO [Compound 214, N-(4-Fluoro-3-trifluoromethyl-benzyl)-N-(3-hydroxymethyl-benzo[b]thiophen-2-yl)-benzenesulfonamide] | 97% | – | 2.1 nM | –
15 | CS(=O)(=O)N(Cc1ccc(F)c(C(F)(F)F)c1)c1sc2ccccc2c1CO [Compound 215, N-(4-Fluoro-3-trifluoromethyl-benzyl)-N-(3-hydroxymethyl-benzo[b]thiophen-2-yl)-methanesulfonamide] | 101% | – | 6 nM | –
16 | CS(=O)(=O)N(Cc1ccc(F)c(F)c1)c1sc2ccccc2c1CO [Compound 216, N-(3,4-Difluoro-benzyl)-N-(3-hydroxymethyl-benzo[b]thiophen-2-yl)-methanesulfonamide] | 100% | – | 14 nM | –
17 | CCS(=O)(=O)N(Cc1ccc(F)c(C(F)(F)F)c1)c1sc2ccccc2c1CO [Compound 217, N-(4-Fluoro-3-trifluoromethyl-benzyl)-N-(3-hydroxymethyl-benzo[b]thiophen-2-yl)-ethanesulfonamide] | 88% | – | 3 nM | –

Row | Structure (SMILES) | inhibition at 0.2 µM [1] | inhibition at 0.5 µM (read-out: % Inh @ 0.5 (μM)) | IC50 | inhibition at 0.5 µM [2]
18 | O=C(O)c1ccc(S(=O)(=O)N(Cc2ccc(F)c(C(F)(F)F)c2)c2sc3ccccc3c2CO)cc1 [Compound 218, N-(3-Hydroxymethyl-benzo[b]thiophen-2-yl)-N-(4-fluoro-3-trifluoromethyl-benzyl)-4-carboxy-benzenesulfonamide] | 90% | – | 1 nM | –
19 | CCS(=O)(=O)N(Cc1ccc(F)c(F)c1)c1sc2ccccc2c1CO [Compound 219, N-(3,4-Difluoro-benzyl)-N-(3-hydroxymethyl-benzo[b]thiophen-2-yl)-ethanesulfonamide] | 101% | – | 7.8 nM | –
20 | CCS(=O)(=O)N(Cc1ccc(F)c(C(F)(F)F)c1)c1sc2ccccc2c1C(C)O (stereo not drawn) [Compound 220, N-(4-Fluoro-3-trifluoromethyl-benzyl)-N-[3-(1-hydroxy-ethyl)-benzo[b]thiophen-2-yl]-ethanesulfonamide] | 98% | – | 1.2 nM | 99%
21 | CCS(=O)(=O)N(Cc1ccc(F)c(F)c1)c1sc2ccccc2c1C(C)O (stereo not drawn) [Compound 221, N-(3,4-Difluoro-benzyl)-N-[3-(1-hydroxy-ethyl)-benzo[b]thiophen-2-yl]-ethanesulfonamide] | 92% | – | 5 nM | –
22 | CC(O)c1c(N(Cc2ccc(F)c(F)c2)S(=O)(=O)c2ccccc2)sc2ccccc12 (stereo not drawn) [Compound 222, N-(3,4-Difluoro-benzyl)-N-[3-(1-hydroxy-ethyl)-benzo[b]thiophen-2-yl]-benzenesulfonamide] | 95% | – | 1.7 nM | –
23 | CC(O)c1c(N(Cc2ccc(F)c(C(F)(F)F)c2)S(=O)(=O)c2ccccc2)sc2ccccc12 (stereo not drawn) [Compound 223, N-(4-Fluoro-3-trifluoromethyl-benzyl)-N-[3-(1-hydroxy-ethyl)-benzo[b]thiophen-2-yl]-benzenesulfonamide] | 96% | – | 2.3 nM | –
24 | CC(O)c1c(N(Cc2ccc(F)c(C(F)(F)F)c2)S(C)(=O)=O)sc2ccccc12 (stereo not drawn) [Compound 224, N-(4-Fluoro-3-trifluoromethyl-benzyl)-N-[3-(1-hydroxy-ethyl)-benzo[b]thiophen-2-yl]-methanesulfonamide] | 100% | – | 1 nM | –
25 | CC(O)c1c(N(Cc2ccc(F)c(F)c2)S(C)(=O)=O)sc2ccccc12 (stereo not drawn) [Compound 225, N-(3,4-Difluoro-benzyl)-N-[3-(1-hydroxy-ethyl)-benzo[b]thiophen-2-yl]-methanesulfonamide] | 98% | – | 4 nM | –
26 | CCS(=O)(=O)N(Cc1ccc(F)c(F)c1)c1sc2ccccc2c1C(C)(C)O [Compound 226, N-(3,4-Difluoro-benzyl)-N-[3-(1-hydroxy-1-methyl-ethyl)-benzo[b]thiophen-2-yl]-ethanesulfonamide] | 99% | – | 2 nM | –
27 | CCS(=O)(=O)N(Cc1ccc(F)c(C(F)(F)F)c1)c1sc2ccccc2c1C(C)(C)O [Compound 227, N-(4-Fluoro-3-trifluoromethyl-benzyl)-N-[3-(1-hydroxy-1-methyl-ethyl)-benzo[b]thiophen-2-yl]-ethanesulfonamide] | 101% | – | 0.6 nM | –
28 | CC(=O)c1c(N(Cc2ccc(F)c(C(F)(F)F)c2)S(C)(=O)=O)sc2ccccc12 [Compound 228, N-(3-Acetyl-benzo[b]thiophen-2-yl)-N-(4-fluoro-3-trifluoromethyl-benzyl)-methanesulfonamide] | 101% | – | 6 nM | –
29 | CC(=O)c1c(N(Cc2ccc(F)c(F)c2)S(C)(=O)=O)sc2ccccc12 [Compound 229, N-(3-Acetyl-benzo[b]thiophen-2-yl)-N-(3,4-difluoro-benzyl)-methanesulfonamide] | 99% | – | 21 nM | –
30 | CCOC(=O)CCCCCN(c1sc2ccccc2c1Br)S(=O)(=O)c1ccccc1 [Compound 230, N-(3-Bromo-benzo[b]thiophen-2-yl)-N-(5-carboethoxy-pentyl)benzenesulfonamide] | 100% | – | 12.9 nM | –
31 | CCCCN(c1sc2ccccc2c1Br)S(=O)(=O)c1ccccc1 [Compound 231, N-(3-Bromo-benzo[b]thiophen-2-yl)-N-(butyl)-benzenesulfonamide] | – | – | 29 nM | 95%
32 | O=S(=O)(c1ccccc1)N(CC1CCCCC1)c1sc2ccccc2c1Br [Compound 232, N-(3-Bromo-benzo[b]thiophen-2-yl)-N-(cyclohexylmethyl)-benzenesulfonamide] | – | – | 74 nM | 94%
33 | O=S(=O)(c1ccccc1)N(CCc1ccccc1)c1sc2ccccc2c1Br [Compound 233, N-(3-Bromo-benzo[b]thiophen-2-yl)-N-(phenethyl)-benzenesulfonamide] | – | – | 22 nM | 93%
34 | CC(C)(C)OCCN(c1sc2ccccc2c1Br)S(=O)(=O)c1ccccc1 [Compound 234, N-(3-Bromo-benzo[b]thiophen-2-yl)-N-(2-tert-butoxy-ethyl)-benzenesulfonamide] | – | – | 10 nM | 93%

Reference: US9434711B2 (Janssen Pharmaceutica, NV, priority 2007, dated 2016)
